Values after ≈ are worked out from the molar mass of the structure shown. Where two headings read alike, the source gives them in different places. Where a SMILES comes first, the peptide text is derived from it. [ ]: non-standard residue; d: D form.
How the values were obtained:
[1] = system: A. baumannii 4-MRGN; type: cell-based
Experimental: (§1) The tested bacteria were incubated overnight in 1×TSB broth, centrifuged and washed with 10 mM sodium phosphate buffer containing 1% (w/v) TSB broth. 5×10^5 cfu/ml bacteria were mixed with different peptide concentrations in 10 mM sodium phosphate buffer with 1% (w/v) TSB (final volume 100 μl) and incubated for 2 hours at 37° C. Afterwards we added 100 μl 2×TSB broth and we measured the optical density at 600 nm (Spark 10M, Tecan, Austria). Bacterial growth was monitored for 12 hours, growing at 37° C. with shaking during the measurements each 30 minutes, except for Akkermansia muciniphila which were incubated at 37° C. in an anaerobic jar and growth was measured after 72 hours.

[2] = system: A. baumannii DSM 30007; type: cell-based
Experimental: as §1

[3] = system: E. coli BW 25113; type: cell-based
Experimental: as §1

[4] = system: E. faecium DSM 20477; type: cell-based
Experimental: as §1

[5] = system: P. aeruginosa 4-MRGN; type: cell-based
Experimental: as §1

[6] = system: P. aeruginosa ATCC 27853; type: cell-based
Experimental: as §1

[7] = system: P. aeruginosa PAO1; type: cell-based
Experimental: as §1

[8] = system: P. aeruginosa XPAT1; type: cell-based
Experimental: as §1

[9] = system: P. aeruginosa XPAT2; type: cell-based
Experimental: as §1

[10] = system: S. aureus ATCC 25923; type: cell-based
Experimental: as §1

[11] = system: S. aureus USA300; type: cell-based
Experimental: as §1

[12] = system: Y. enterocolitica; type: cell-based
Experimental: as §1

[13] = system: human cell line, red blood cells
Experimental: As positive control, cells were treated with 2% Triton X-100 while treatment with 0.01% acetic acid was used as negative control. […] Hemolytic activity was normalized to the hemolytic activity of 0.1% Triton X-100. The experiments were carried out in duplicates.
The activity was normalized to the positive control. As positive control, cells were treated with 2% Triton X-100 while treatment with 0.01% acetic acid was used as negative control.

[14] = system: E. coli JM83; type: cell-based
Experimental: as §1

[15] = system: E. faecium 475747; type: cell-based
Experimental: as §1

[16] = system: K. pneumoniae 3-MRGN; type: cell-based
Experimental: as §1

[17] = system: K. pneumoniae DSM 30104; type: cell-based
Experimental: as §1

[18] = system: C. albicans 529L; type: cell-based
[19] = system: CaCo2/TC7 cells
Experimental: CaCo2/TC7 (X, X) and HT29 MTX […] […] Experiments were carried out in duplicates.

[20] = system: human erythrocytes; test: Hemolytic assay; type: cell-based; conditions: for hemolytic activity, in words: compared to Melittin
Experimental: Hemolytic activity was measured after an existing protocol^13. We obtained blood from two voluntary donors (sample collection had been previously approved by the Ethical Committee of the University Hospital of Tübingen, Germany) and 1 ml blood was washed with PBS two times. Afterwards we centrifuged the blood at 1000 g and performed a 1% (v/v) blood suspension in PBS. The blood suspension was incubated with different peptide concentrations (final concentration 0.5%) for one hour at 37° C. Then the samples were centrifuged at 1000 g for 10 minutes and the supernatant was collected and measured at 414 nm. […] These experiments were carried out in duplicates.

[21] = system: HT29 MTX E29 cells
Experimental: CaCo2/TC7 (X, X) and HT29 MTX [MUT] (X, X) were seed in a 96 well plate in 90 μl media (1500 cells/well) and incubated at 37° C. for 24 hours. Afterwards peptide treatment with different concentrations started (volume of 10 μl solved in 0.01% acetic acid) and cells were incubated for 96 hours. Untreated and 1% Triton-X treated cells were used as controls. After the incubation we added 100 μl of CellTiter Glo2.0 solution and started our measurement protocol. The measurement was carried out in a Spark 10M (Tecan), starting with 12 minutes continuously shaking followed by the luminescence measurement with an integration time from 1 second per well. Experiments were carried out in duplicates.

[22] = system: S. enterica serovar enteriditis; test: Turbidity broth assay (MIC); type: cell-based; conditions: after 12 hours
Experimental: as §1

[23] = system: E. coli BW 25113; test: Turbidity assay, MIC by optical density after 18 h; type: cell-based; design: key: XX High activity; X Low activity; No activity
Experimental: Bactericidal activity of the E. coli and S. aureus strains in the cell wall target experiments as well as the HD5 dimer experiments was assessed as described previously. Log-phase bacteria were collected by centrifugation (2500 rpm, 10 min, […]), washed twice with 10 mM sodium phosphate buffer containing 1% (w/v) TSB broth and the optical density at OD600 nm (OD600=0.1) was determined. Approximately 5×10^5 CFU/ml bacteria were incubated with serial peptide concentrations (1.17-150 μM) in a final volume of 100 μl in 10 mM sodium phosphate buffer containing 1% (w/v) TSB broth for 2 hours at 37° C. After incubation, 100 μl of 6% TSB (w/v) were added and absorbance was measured at 600 nm (Tecan, Switzerland) and monitored for 18 hours. Afterwards, 100 μl per well were plated on LB-plates to determine the numbers of viable bacteria microbiologically. Bactericidal activity is expressed as the LC99.9, the lowest concentration that killed ≥99.9% of bacteria. The experiment was repeated at least three times independently.

[24] = system: S. enterica serovar Enteritidis; test: Turbidity assay, MIC by optical density after 18 h; type: cell-based; design: key: XX High activity; X Low activity; No activity
[25] = system: E. faecalis ATCC 19433; test: Turbidity assay, MIC by optical density after 18 h; type: cell-based
[26] = A. baumannii 4-MRGN, after 12 hours
[27] = A. baumannii DSM30007, after 12 hours
[28] = E. faecium 475747, after 12 hours
[29] = E. faecium DSM20477, after 12 hours
[30] = K. pneumoniae 3-MRGN, after 12 hours
[31] = K. pneumoniae DSM30104, after 12 hours
[32] = P. aeruginosa 4-MRGN, after 12 hours
[33] = P. aeruginosa ATCC 27853, after 12 hours
[34] = P. aeruginosa PAO1, after 12 hours
[35] = P. aeruginosa XPAT1, after 12 hours
[36] = P. aeruginosa XPAT2, after 12 hours
[37] = S. aureus ATCC25923, after 12 hours
[38] = S. aureus USA300, after 12 hours
[39] = Y. enterocolitica, after 12 hours
[40] = C. albicans 529L, after 24 hours (Table 5)

Compound | MIC ([1]; 4-MRGN, 12 h) [µM] | MIC ([2]; DSM 30007, 12 h) [µM] | MIC ([4]; DSM 20477, 12 h) [µM] | MIC ([5]; 4-MRGN, 12 h) [µM] | MIC ([6]; ATCC 27853, 12 h) [µM] | MIC ([7]; PAO1, 12 h) [µM] | MIC ([8]; XPAT1, 12 h) [µM] | MIC ([9]; XPAT2, 12 h) [µM] | MIC ([10]; ATCC 25923, 12 h) [µM] | MIC ([11]; USA300, 12 h) [µM] | MIC ([12]; 12 h) [µM] | MIC [1, 26] | MIC [2, 27] | MIC [15, 28] | MIC [4, 29] | MIC [16, 30] | MIC [17, 31] | MIC [5, 32] | MIC [6, 33] | MIC [7, 34] | further results
C[C@H](N)C(=O)N[C@H](C(=O)N[C@@H](CS)C(=O)N[C@@H](Cc1ccc(O)cc1)C(=O)N[C@@H](CS)C(=O)N[C@@H](CCCNC(=N)N)C(=O)N[C@H](C(=O)NCC(=O)N[C@@H](CCCNC(=N)N)C(=O)O)[C@@H](C)O)[C@@H](C)O [HD-51-9] (H-ATCYCRTGR-OH; N-terminus and C-terminus assumed) | 25 | 100 | 25 | 100 | 50 | 50 | >100 | >100 | 50 | 50 | 50 to 100 |  |  |  |  |  |  |  |  |  | MIC ([3]; BW 25113, 12 h): 25 µM (≈ 25.8 µg/mL); toxic effect in in vitro experiments [13]: no toxicity was observed
CC(C)C[C@H](NC(=O)[C@H](CCCNC(=N)N)NC(=O)[C@H](CS)NC(=O)[C@H](CO)NC(=O)[C@H](CS)NC(=O)[C@@H](N)C(C)C)C(=O)N[C@H](C(=O)N[C@@H](Cc1ccccc1)C(=O)N[C@@H](CS)C(=O)N[C@@H](CCCNC(=N)N)C(=O)N[C@@H](CCCNC(=N)N)C(=O)O)C(C)C [HNP-41-11] (H-VCSCRLVFCRR-OH; N-terminus and C-terminus assumed) | 25 | 6.25 | 12.5 | 50 | 12.5 | 12.5 | 12.5 | 12.5 | 12.5 | 50 | 12.5 | 33.5 µg/mL | 8.4 µg/mL | 4.2 µg/mL | 16.8 µg/mL | 33.5 µg/mL | 33.5 µg/mL | 67.1 µg/mL | 16.8 µg/mL | 16.8 µg/mL | MIC ([14]; E. coli JM83, after 12 hours): 8.4 µg/mL; MIC ([14]; JM83, 12 h): 6.25 µM; MIC ([15]; 475747, 12 h): 3.125 µM; MIC ([16]; 3-MRGN, 12 h): 25 µM; MIC ([17]; DSM 30104, 12 h): 25 µM; MIC [8, 35]: 16.8 µg/mL; MIC [9, 36]: 16.8 µg/mL; MIC [10, 37]: 16.8 µg/mL; MIC [11, 38]: 67.1 µg/mL; MIC [12, 39]: 16.8 µg/mL; MIC ([18]; 529L, 24 h): 100 µM; MIC [18, 40]: 134.2 µg/mL; cytotoxic effects [19]: minor cytotoxic effects; hemolytic activity, in words [20]: low hemolytic activity; cytotoxic effects compared to CaCo2/TC7 [21]: more susceptible
CC(=O)N[C@@H](C(=O)N[C@H](CS)C(=O)N[C@H](CO)C(=O)N[C@H](CS)C(=O)N[C@H](CCCNC(=N)N)C(=O)N[C@H](CC(C)C)C(=O)N[C@@H](C(=O)N[C@H](Cc1ccccc1)C(=O)N[C@H](CS)C(=O)N[C@H](CCCNC(=N)N)C(=O)N[C@H](CCCNC(=N)N)C(N)=O)C(C)C)C(C)C [HNP-41-11mod, Ac-vcscrlvfcrr-NH2] (Ac-[dV][dC][dS][dC][dR][dL][dV][dF][dC][dR][dR]-NH2) | 6.25 | 6.25 | 6.25 | 6.25 | 6.25 | 12.5 | 12.5 | 12.5 | 3.125 | 12.5 | 6.25 | 8.6 µg/mL | 8.6 µg/mL | 4.3 µg/mL | 8.6 µg/mL | 8.6 µg/mL | 8.6 µg/mL | 8.6 µg/mL | 8.6 µg/mL | 17.3 µg/mL | MIC ([14]; E. coli JM83, after 12 hours): 8.6 µg/mL; MIC ([14]; JM83, 12 h): 6.25 µM; MIC ([15]; 475747, 12 h): 3.125 µM; MIC ([16]; 3-MRGN, 12 h): 6.25 µM; MIC ([17]; DSM 30104, 12 h): 6.25 µM; MIC [8, 35]: 17.3 µg/mL; MIC [9, 36]: 17.3 µg/mL; MIC [10, 37]: 4.3 µg/mL; MIC [11, 38]: 17.3 µg/mL; MIC [12, 39]: 8.6 µg/mL; MIC ([18]; 529L, 24 h): 25 µM; MIC [18, 40]: 34.6 µg/mL; cytotoxic effects [19]: minor cytotoxic effects; hemolytic toxicity ([20]; at ≤18.75 μM): negligible toxicity; hemolytic activity, in words [20]: low hemolytic activity; cytotoxic effects compared to CaCo2/TC7 [21]: more susceptible
Ac-atcycrtGr-NH2 [HD-51-9mod] |  |  |  |  |  |  |  |  |  |  |  | 12.5 µM | 25 µM | 3.125 µM | 6.25 µM | >>> | >>> | 50 µM | 12.5 µM | 50 µM | MIC ([3]; E. coli (BW 25113 per table title), after 12 hours): 25 µM; MIC [8, 35]: >100 µM; MIC [9, 36]: 100 µM; MIC [10, 37]: 12.5 µM; MIC [11, 38]: 12.5 µM; MIC [12, 39]: 50 to 100 µM; MIC [22]: >>>; MIC ([18]; C. albicans 529L, after 12 hours (Table 4)): >100 µM
RGTRCYCTA [HD-51-9rev] |  |  |  |  |  |  |  |  |  |  |  |  |  |  |  |  |  |  |  |  | antimicrobial activity (MIC), activity class [23]: XX; antimicrobial activity (MIC), activity class [24]: X; antimicrobial activity, in words [25]: complete dissolving of bactericidal effects
